According to patent publication US12458605B2, “Lipid nanoparticle” (National University Corporation Hokkaido University, priority 2020, dated 2025):
“And” between values parts separate entries of the source, which are not always exact repeats. Identical values can stand only once.

Assays:
[1] = Average particle size (ζ-Average) and PDI by dynamic light scattering (Zetasizer Nano ZSP); format: physicochemical; conditions: for Particle size (nm), immediately after the preparation: pDNA (eGFP)-loaded LNP
How it was run: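 Lipid nanoparticles dispersed in PBS(−) were sized by dynamic light scattering, giving the ζ-Average diameter and polydispersity index (PDI).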

[2] = siRNA/mRNA encapsulation rate by Ribogreen reagent (section IV); format: physicochemical; conditions: for % siRNA encapsulation: F7siRNA-loaded LNP, 50:10:38.5:1.5, N/P ratio 6; for % mRNA encapsulation: FlucmRNA-loaded LNP, 50:10:38.5:1.5
How it was run: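 LNPs diluted in TE buffer to 8 μg/mL nucleic acid for surface RNA, or to 1.2 μg/mL with 1% Triton X-100 for total RNA. RiboGreen fluorescence (ex 485/em 528 nm) quantified against a Triton-containing standard curve (0-2.5 μg/mL). Encapsulation % = (total − surface)/total × 100.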

liver = assay: In vivo Fluc activity of FlucmRNA-loaded LNP by in vivo imaging, liver; conditions: Balb/c mice, 6 hours; for Fluc Activity in liver: FlucmRNA-loaded LNP i.v. 0.1 mg mRNA/kg
How it was run: (§1)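 Female Balb/c mice, 7 weeks old, received LNP i.v. at 0.1 mg mRNA/kg. At 6 h, luciferin was given via tail vein at 1.5 mg per mouse, and liver and spleen luminescence was imaged as Avg Radiance [p/s/cm2/sr] near 560 nm.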

spleen = assay: In vivo Fluc activity of FlucmRNA-loaded LNP by in vivo imaging, spleen; conditions: Balb/c mice, 6 hours; for Fluc activity in the spleen, compared with CL4F6: 0.1 mg mRNA/kg, versus LNP comprising CL4F6 (Tables 5 and 6); for Fluc Activity in spleen: FlucmRNA-loaded LNP i.v. 0.1 mg mRNA/kg
How it was run: as §1

F7 = assay: In vivo F7 knockdown, plasma F7 enzyme activity (BIOPHEN FVII), Balb/c mice; conditions: i.v. 0.025 mg siRNA/kg, plasma at 24 hours; for F7 enzyme activity (%): untreated mice as 100%
How it was run: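 Female Balb/c mice, 5 weeks old, received F7 siRNA lipid nanoparticles i.v. at 0.025 mg siRNA/kg; plasma F7 activity measured chromogenically (BIOPHEN FVII) 24 h later. Values are % of untreated mice, also expressed as a ratio to MC3-containing nanoparticles set at 1.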

[3] = pDNA encapsulation rate by Picogreen reagent; format: physicochemical; conditions: pDNA (eGFP)-loaded LNP
Procedure: The encapsulation rate of pDNA of the lipid nanoparticles was measured using Picogreen (registered trademark) reagent (Quant-iT™ dsDNA Assay Kit, broad range, manufactured by Thermofisher Scientific). In encapsulation rate measurement of pDNA, the nucleic acid concentration in solution for measuring nanoparticle surface nucleic acid concentration was set at 1.6 μg/mL, the nucleic acid concentration in solution for measuring total nucleic acid concentration […], and the nucleic acid concentration used for calibration curve 0-0.5 μg/mL, and the same method as the method for measuring encapsulation rate of siRNA and mRNA was carried out except that Picogreen (registered trademark) reagent (Quant-iT™ dsDNA Assay Kit, broad range, manufactured by Thermofisher Scientific) was used as measurement reagent. Encapsulation rate %=(nucleic acid concentration in solution for measuring total nucleic acid concentration (μg/mL)−nucleic acid concentration in solution for measuring nanoparticle surface nucleic acid concentration (μg/mL))/(nucleic acid concentration in solution for measuring total nucleic acid concentration (μg/mL))×100. <Results>

[4] = Stability of pDNA-loaded LNP standing at 40° C.; format: physicochemical; conditions: for Quality 40° C. 1 M / Quality 40° C. 1 W: pDNA-loaded LNP; for Particle size (nm), 40° C. 1 M / encapsulation rate (%), 40° C. 1 M: pDNA-loaded LNP after standing at 40° C. 1 M; for Particle size (nm), 40° C. 1 W / encapsulation rate (%), 40° C. 1 W: pDNA-loaded LNP after standing at 40° C. 1 W
Procedure: Prepared lipid nanoparticles were allowed to stand at 40° C., and after keeping for each period, they were evaluated whether quality was well remained according to the following criteria: • Good (O): particle size is within +/−20 nm of the particle size immediately after preparation, and PDI is 0.2 or less, and encapsulation rate is 80% or more; • No good (X): particle size is greater than +/−20 nm of the particle size immediately after preparation, or encapsulation rate is less than 80%.
The lipid nanoparticles which remain in good quality with standing at 40° C. for one week or more can be evaluated as having excellent stability.

[5] = Storage stability of FlucmRNA-loaded LNP at −80, 5, 25 and 40° C.; format: physicochemical; conditions: for period for which quality remained good, −80° C.: maximum storage period 1 week; for period for which quality remained good, 5° C. / period for which quality remained good, 25° C. / period for which quality remained good, 40° C. (weeks): maximum storage period 5 weeks
How it was run: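 FlucmRNA-loaded LNPs held at −80, 5, 25 or 40° C; at each time point size, PDI and encapsulation measured. Quality deemed maintained while size stays within ±20 nm of preparation day, PDI ≤0.2 and encapsulation ≥80%; value is the period meeting all three.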

factor VII (F7) = conditions: mouse liver; lipid as LNP carrier of siRNA; cited from earlier work
[6] = F7siRNA-loaded LNP, 50:10:38.5:1.5, N/P ratio 6
[7] = FlucmRNA-loaded LNP, 50:10:38.5:1.5
[8] = FlucmRNA-loaded LNP, lipid:DSPC:cholesterol:DMG-PEG2K 50:10:38.5:1.5

Row | Structure (SMILES) | PDI [1, 6] | ζ-Average (nm) [1, 6] | PDI [1, 7] | ζ-Average (nm) [1, 8] | Particle size (nm), immediately after the preparation ([1]; 50:10:38.5:1.5) [nm] | % siRNA encapsulation [2] | % mRNA encapsulation [2] | Fluc Activity in liver (liver) | Fluc Activity in spleen (spleen) | F7 enzyme activity (%) (F7) | encapsulation rate (%), immediately after the preparation [3] [%] | Quality 40° C. 1 M [4] | Quality 40° C. 1 W [4] | Particle size (nm), 40° C. 1 M [4] [nm] | encapsulation rate (%), 40° C. 1 M [4] [%] | period for which quality remained good, −80° C. [5] [week] | period for which quality remained good, 5° C. [5] [weeks] | period for which quality remained good, 25° C. [5] [weeks] | period for which quality remained good, 40° C. (weeks) [5] | ED50 in F7 knockdown (factor VII (F7)) [mg siRNA/kg] | other results
1 | CCCCCCC(CCCC)C(=O)OCCCCCCC(O)(CCCCCCOC(=O)C(CCCC)CCCCCC)CCCCN(CCC)CCC (stereo not drawn) [CL4F 8-4] | 0.006 | 110.00 nm | 0.020 | 101.60 nm | 104.7 | 100.0% | 99.7% | 6.09E+07 Avg Radiance [p/s/cm2/sr] | 1.41E+07 Avg Radiance [p/s/cm2/sr] | 5.6 | 98.0 | ∘ | ∘ | 116.4 | 98.1 | 1 | 5 | 5 | 1 week weeks |  | Fluc activity in the spleen, compared with CL4F6 (spleen): higher Fluc activity; Particle size (nm), 40° C. 1 W [4]: 109.1 nm; encapsulation rate (%), 40° C. 1 W [4]: 97.8%
2 | CCCCCCCC(CCCCCCC)C(=O)OCCCCCCC(O)(CCCCCCOC(=O)C(CCCCCCC)CCCCCCC)CCCCN(CCC)CCC [CL4F 9-7] | 0.020 | 97.03 nm | 0.004 | 81.30 nm | 98.2 | 99.9% | 99.2% | 1.55E+08 Avg Radiance [p/s/cm2/sr] | 2.43E+06 Avg Radiance [p/s/cm2/sr] | 4.3 | 98.1 | ∘ | ∘ | 101.4 | 98.1 | 1 | 5 | 5 | 5 weeks |  | Fluc activity in the liver, compared with CL4F6 (liver; 0.1 mg mRNA/kg, versus LNP comprising CL4F6 (Tables 5 and 6)): higher Fluc activity; Particle size (nm), 40° C. 1 W [4]: 97.1 nm; encapsulation rate (%), 40° C. 1 W [4]: 98.0%
3 | CCCCCCCCC(CCCCC)C(=O)OCCCCCCC(O)(CCCCCCOC(=O)C(CCCCC)CCCCCCCC)CCCCN(CCC)CCC (stereo not drawn) [CL4F 10-5] | 0.006 | 98.70 nm | 0.021 | 84.62 nm | 101.6 | 100.1% | 99.7% | 1.06E+08 Avg Radiance [p/s/cm2/sr] | 4.64E+06 Avg Radiance [p/s/cm2/sr] | 3 | 98.2 | ∘ | ∘ | 104.2 | 98.5 | 1 | 5 | 5 | 5 weeks |  | Fluc activity in the spleen, compared with CL4F6 (spleen): higher Fluc activity; Particle size (nm), 40° C. 1 W [4]: 101.0 nm; encapsulation rate (%), 40° C. 1 W [4]: 98.3%
4 | CCCCCC/C=C\COC(=O)CCCCCCCC(CCCCCCCC(=O)OC/C=C\CCCCCC)OC(=O)CCCN(C)C [L319] |  |  |  |  |  |  |  |  |  |  |  |  |  |  |  |  |  |  |  | 0.01 | 
5 | CCCCC/C=C\C/C=C\CCCCCCCCC(CCCCCCCC/C=C\C/C=C\CCCCC)OC(=O)CCCN(C)C [MC3, D-Lin-MC3-DMA, reference compound] |  | 81.68 nm and 85.73 nm and 87.69 nm | 0.042 and 0.072 | 68.60 nm and 71.49 nm |  | 99.1% and 97.6% | 99.0% and 99.04% |  |  | 2.5 |  |  |  |  |  | 0 | 0 | 1 | 0 weeks | 0.005 | F7 enzyme activity (Ratio using MC3 as 1) (F7; relative plasma F7 activity of MC3 LNP as 1): 1
6 | CCCCC/C=C\C/C=C\CCCCCCCCOC1(OCCCCCCCC/C=C\C/C=C\CCCCC)CCN(C)CC1 [YSK05] |  |  |  |  |  |  |  |  |  |  |  |  |  |  |  |  |  |  |  | 0.06 | 
7 | CCCCCCCCCCC(O)CN(CCCCC1NC(=O)C(CCCCN(CC(O)CCCCCCCCCC)CC(O)CCCCCCCCCC)NC1=O)CC(O)CCCCCCCCCC (stereo not drawn) [cKK-E12] |  |  |  |  |  |  |  |  |  |  |  |  |  |  |  |  |  |  |  | 0.002 | 
